Read-outs that look alike come from different tables or passages of the source.
Key:
HCV replicon = HCV replicon FRET assay; assay type: cell-based; settings: Hepatitis C virus
From the text: FRET Assay Preparation. To perform the HCV FRET screening assay, 96-well cell culture plates were used. The FRET peptide (Anaspec, Inc.) (Taliani et al., Anal. Biochem. 1996, 240, 60-67) contains a fluorescence donor, EDANS, near one end of the peptide and an acceptor, DABCYL, near the other end. The fluorescence of the peptide is quenched by […] resonance energy transfer (RET) between the donor and the acceptor, but as the NS3 protease cleaves the peptide the products are released from RET quenching and the fluorescence of the donor becomes apparent. The assay reagent was made as follows: 5× cell Luciferase cell culture lysis reagent from Promega (#E153A) diluted to 1× with dH2O, NaCl added to 150 mM final, the FRET peptide diluted to 20 uM final from a 2 mM stock.
To prepare plates, HCV replicon cells, with or without a Renilla luciferase reporter gene, were trypsinized and placed into each well of a 96-well plate with titrated test compounds added in columns 3 through 12; columns 1 and 2 contained a control compound (HCV protease inhibitor), and the bottom row contained cells without compound. The plates were then placed in a CO2 incubator at 37° C.
Assays. Subsequent to addition of the test compounds described above (FRET Assay Preparation), at various times the plate was removed and Alamar blue solution (Trek Diagnostics, #00-100) was added per well as a measure of cellular toxicity. After reading in a Cytoflour 4000 instrument (PE Biosystems), plates were rinsed with PBS and then used for FRET assay by the addition of 30 ul of the FRET peptide assay reagent described above (FRET Assay Preparation) per well. The plate was then placed into the Cytoflour 4000 instrument which had been set to 340 excite/490 emission, automatic mode for 20 cycles and the plate read in a kinetic mode. Typically, the signal to noise using an endpoint analysis after the reads was at least three-fold. Alternatively, after Alamar blue reading, plates were rinsed with PBS, 50 ul of DMEM (high glucose) without phenol red was added and plates were then used for luciferase assay using the Promega Dual-Glo Luciferase Assay System.
Compound analysis was determined by quantification of the relative HCV replicon inhibition and the relative cytotoxicity values. To calculate cytoxicity values, the average Alamar Blue fluorescence signals from the control wells were set as 100% non-toxic. The individual signals in each of the compound test wells were then divided by the average control signal and multiplied by 100% to determine […]. To calculate the HCV replicon inhibition values, an average background value was obtained from the two wells containing the highest amount of HCV protease inhibitor at the end of the assay period. These numbers were similar to those obtained from naïve Huh-7 cells.
The background numbers were then subtracted from the average signal obtained from the control wells and this number was used as 100% activity. The individual signals in each of the compound test wells were then divided by the averaged control values after background subtraction and multiplied by 100% to determine percent activity. EC50 values for a protease inhibitor titration were calculated as the concentration which caused a 50% reduction in FRET or luciferase activity. The two numbers generated for the compound plate, percent cytoxicity and percent activity were used to determine compounds of interest for further analysis.

HCV NS5B = target: T1, HCV NS5B (Hepatitis C virus genotype 1b, UniProt Q9WMX2); assay: HCV NS5B RdRp enzyme assay (preincubation protocol); assay type: biochemical
T1 construct: The protein was expressed with an 18 amino acid C-terminal truncation to enhance the solubility; made in house; host or cells: E. coli BL21 (DE3), pET21a
T1 sequence (Q9WMX2 2420-2992): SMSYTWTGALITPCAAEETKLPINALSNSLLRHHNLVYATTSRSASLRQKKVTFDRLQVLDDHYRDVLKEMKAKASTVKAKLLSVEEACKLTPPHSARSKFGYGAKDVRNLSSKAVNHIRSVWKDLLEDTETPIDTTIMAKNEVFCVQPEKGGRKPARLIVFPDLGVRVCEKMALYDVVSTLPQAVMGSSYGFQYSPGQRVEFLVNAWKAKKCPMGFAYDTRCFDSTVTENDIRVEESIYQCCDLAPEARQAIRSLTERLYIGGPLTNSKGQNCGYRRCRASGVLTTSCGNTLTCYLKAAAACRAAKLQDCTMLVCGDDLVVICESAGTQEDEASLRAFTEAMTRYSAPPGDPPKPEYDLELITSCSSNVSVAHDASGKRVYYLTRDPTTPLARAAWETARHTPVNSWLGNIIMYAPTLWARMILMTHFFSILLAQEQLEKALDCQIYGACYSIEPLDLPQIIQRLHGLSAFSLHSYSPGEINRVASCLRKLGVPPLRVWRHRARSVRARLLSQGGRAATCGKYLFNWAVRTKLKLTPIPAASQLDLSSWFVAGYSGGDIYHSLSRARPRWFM
Outline: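 C-terminally truncated (Δ18) genotype 1b NS5B from E. coli, 14 nM, added to compound, then polyA template (0.2 nM), 3H-UTP (0.29 μM) and oligo-dT12 primer precaptured on streptavidin SPA beads. 4 h at 30 °C, pH 7.5, 2% DMSO; SPA readout; IC50 from seven concentrations by logistic fit.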

[1] = Table 1a, FRET assay, read-out: EC50*
[2] = Table 1b, FRET assay, read-out: EC50*
[3] = Table 1, FRET assay, read-out: EC50*

CC(=O)NN(C)C(=O)C1Cc2ccccc2-c2c(C3CCCCC3)c3ccc(C(=O)NS(=O)(=O)N(C)C)cc3n2C1 (centres unmarked)
EC50 (HCV replicon; [1]): 0.03 to 1 µM
IC50 (HCV NS5B; Table 1a, read-out: IC50*): 0.01 to 1 µM

O=C(O)c1ccc2c(C3CCCCC3)c3n(c2c1)CC(C(=O)N1C2CCC1CC2)=Cc1ccccc1-3
EC50 (HCV replicon): 0.07 to 1 µM
IC50 (HCV NS5B; Table 1, read-out: IC50*): 0.01 to 1 µM

COc1ccc2c(c1)C=C(C(=O)N(C)Cc1ccco1)Cn1c-2c(C2CCCCC2)c2ccc(C(=O)NS(=O)(=O)N(C)C)cc21
EC50 (HCV replicon; [2]): 0.03 to 1 µM
IC50 (HCV NS5B; Table 1b, read-out: IC50*): < 0.02 µM

COc1ccc2c(c1)CC(NC(=O)N1C[C@@H](C)N(C)[C@@H](C)C1)Cn1c-2c(C2CCCCC2)c2ccc(C(=O)NS(=O)(=O)N(C)C)cc21 (some centres unmarked)
EC50 (HCV replicon; [2]): 0.03 to 1 µM
IC50 (HCV NS5B; Table 1b, read-out: IC50*): 0.02 to 1 µM

CC(=O)N1CCN(C(=O)C2Cc3ccccc3-c3c(C4CCCCC4)c4ccc(C(=O)NS(=O)(=O)N(C)C)cc4n3C2)CC1 (centres unmarked)
EC50 (HCV replicon; [3]): 0.07 to 1 µM
IC50 (HCV NS5B; Table 1, read-out: IC50*): 0.01 to 1 µM

COc1ccc2c(c1)C=C(C(=O)N1CCN(S(C)(=O)=O)CC1)Cn1c-2c(C2CCCCC2)c2ccc(C(=O)NS(=O)(=O)N(C)C)cc21
EC50 (HCV replicon; [3]): 0.07 to 1 µM
IC50 (HCV NS5B; Table 1, read-out: IC50*): 0.01 to 1 µM

O=C(O)c1ccc2c(C3CCCCC3)c3n(c2c1)CC(C(=O)N1CCCC(F)C1)=Cc1ccccc1-3 (centres unmarked)
EC50 (HCV replicon; [3]): 1 to 10 µM
IC50 (HCV NS5B; Table 1, read-out: IC50*): 0.01 to 1 µM

COc1ccc2c(c1)CC(NC(=O)N1CCC(N3CCCC3)CC1)Cn1c-2c(C2CCCCC2)c2ccc(C(=O)NS(=O)(=O)N(C)C)cc21 (centres unmarked)
EC50 (HCV replicon; [1]): 0.03 to 1 µM
IC50 (HCV NS5B; Table 1a, read-out: IC50*): 0.01 to 1 µM

COc1ccc2c(c1)CC(NC(=O)N1CCN(S(C)(=O)=O)CC1)Cn1c-2c(C2CCCCC2)c2ccc(C(=O)NS(=O)(=O)N(C)C)cc21 (centres unmarked)
EC50 (HCV replicon; [1]): 0.03 to 1 µM
IC50 (HCV NS5B; Table 1a, read-out: IC50*): 0.01 to 1 µM

COc1ccc2c(c1)C=C(C(=O)N1CCOC(CNC(C)=O)C1)Cn1c-2c(C2CCCCC2)c2ccc(C(=O)NS(=O)(=O)N(C)C)cc21 (centres unmarked)
EC50 (HCV replicon; [1]): 0.03 to 1 µM
IC50 (HCV NS5B; Table 1a, read-out: IC50*): < 0.02 µM

COc1ccc2c(c1)CC(C(=O)N1CC(N(C)C)C1)Cn1c-2c(C2CCCCC2)c2ccc(C(=O)NS(=O)(=O)N(C)C)cc21 (centres unmarked)
EC50 (HCV replicon; [2]): 0.03 to 1 µM
IC50 (HCV NS5B; Table 1b, read-out: IC50*): 0.02 to 1 µM

COC(=O)c1ccc2c(C3CCCCC3)c3n(c2c1)CC(C(=O)N(C)NC(C)=O)=Cc1ccccc1-3
EC50 (HCV replicon; [3]): 1 to 10 µM
IC50 (HCV NS5B; Table 1, read-out: IC50*): > 1 µM

O=C(O)c1ccc2c(C3CCCCC3)c3n(c2c1)C/C(=N/O)Cc1ccccc1-3
EC50 (HCV replicon; [3]): 1 to 10 µM
IC50 (HCV NS5B; Table 1, read-out: IC50*): 0.01 to 1 µM

COc1ccc2c(c1)CC(C(=O)N1CC(CO)C1)Cn1c-2c(C2CCCCC2)c2ccc(C(=O)NS(=O)(=O)N(C)C)cc21 (centres unmarked)
EC50 (HCV replicon; [2]): 0.03 to 1 µM
IC50 (HCV NS5B; Table 1b, read-out: IC50*): 0.02 to 1 µM

CN(C)S(=O)(=O)NC(=O)c1ccc2c(C3CCCCC3)c3n(c2c1)CC(C(=O)Nc1nccs1)=Cc1ccccc1-3
EC50 (HCV replicon; [3]): 0.07 to 1 µM
IC50 (HCV NS5B; Table 1, read-out: IC50*): 0.01 to 1 µM

C[C@@H]1CN(C(=O)C2=Cc3ccccc3-c3c(C4CCCCC4)c4ccc(C(=O)NS(=O)(=O)N5CCN(C)CC5)cc4n3C2)C[C@H](C)O1
EC50 (HCV replicon; [3]): 0.07 to 1 µM
IC50 (HCV NS5B; Table 1, read-out: IC50*): 0.01 to 1 µM

COc1ccc2c(c1)CC(NC(=O)N1CC(O)C1)Cn1c-2c(C2CCCCC2)c2ccc(C(=O)NS(=O)(=O)N(C)C)cc21 (centres unmarked)
EC50 (HCV replicon; [2]): 0.03 to 1 µM
IC50 (HCV NS5B; Table 1b, read-out: IC50*): 0.02 to 1 µM

COc1ccc2c(c1)C=C(C(=O)N(C)CC(=O)N(C)C)Cn1c-2c(C2CCCCC2)c2ccc(C(=O)NS(=O)(=O)N(C)C)cc21 [drawing 238]
EC50 (HCV replicon; [1]): 0.03 to 1 µM
IC50 (HCV NS5B; Table 1a, read-out: IC50*): 0.01 to 1 µM

COc1ccc2c(c1)C=C(C(=O)N1CCOCC1)Cn1c-2c(C2CCCCC2)c2ccc(C(=O)NS(=O)(=O)N3CCN(C)CC3)cc21
EC50 (HCV replicon; [3]): 0.07 to 1 µM
IC50 (HCV NS5B; Table 1, read-out: IC50*): 0.01 to 1 µM

COCCN(C)C(=O)C1=Cc2ccccc2-c2c(C3CCCCC3)c3ccc(C(=O)NS(=O)(=O)N(C)C)cc3n2C1
EC50 (HCV replicon; [3]): 0.07 to 1 µM
IC50 (HCV NS5B; Table 1, read-out: IC50*): 0.01 to 1 µM

C[C@@H]1CN(C(=O)C2=Cc3ccccc3-c3c(C4CCCCC4)c4ccc(C(=O)NS(=O)(=O)N5CCOCC5)cc4n3C2)C[C@H](C)O1
EC50 (HCV replicon; [3]): 0.07 to 1 µM
IC50 (HCV NS5B; Table 1, read-out: IC50*): 0.01 to 1 µM

COc1ccc2c(c1)C=C(C(=O)N1CCN(CC(F)(F)F)CC1)Cn1c-2c(C2CCCCC2)c2ccc(C(=O)NS(=O)(=O)N(C)C)cc21 [drawing 393]
EC50 (HCV replicon; [2]): 0.03 to 1 µM
IC50 (HCV NS5B; Table 1b, read-out: IC50*): 0.02 to 1 µM
